Test results as given in patent publication US7910569B2, “Microbicidal compositions and their use” (BASF Aktiengesellschaft, priority 2003, dated 2011).

Assays:
Assay type in all cases: cell-based
[1] = test system: algae; test: Surface protection, algal resistance of coating (BBA MOAT 33); settings: after leaching with running water for 72 hours
Protocol: (§1) Testing was performed according to the BS3900 G6 and BBA MOAT 33 methods for evaluation versus fungi and algae, respectively. The methods involve painting a substrate panel with the coating and leaching under running water for 72 hours. The substrates are incubated for 56 days after being inoculated with fungi or algae. Performance is judged by comparing with suitable control samples i.e without biocide, a positive control and for fungi with substrate panels that have not been leached.
(§2) Performance rating of painted test substrates is as follows and a score of 0, 1 and 2 is considered as a pass • 0=no growth • 1=trace of growth • 2=growth on 1-10% of test face • 3=growth on 10-30% of test face • 4=growth on 30-70% of test face • 5=growth on 70-100% of test face. Surface Protection using CuHDO

[2] = test system: fungi; test: Surface protection, fungal resistance of coating (BS3900 G6); design: key: 0=no growth; 1=trace of growth; 2=growth on 1-10% of test face; 3=growth on 10-30% of test face; 4=growth on 30-70% of test face; 5=growth on 70-100% of test face
Protocol: as §1, with “The substrates are incubated for 56 days after being inoculated with fungi or algae.” left out
as §2

[3] = test system: Bacterial and Fungal Challenges; test: In can preservation challenge test (IBRG draft method), overall efficacy; settings: 1000 ppm, acrylic ester and acrylonitrile polymer dispersion
Protocol: (§3) Tests were performed according to the IBRG draft method (5.2, June 2001). This briefly entails the substrate being dosed with the biocide and allowed to equilibrate. Samples are inoculated once per week for 4 weeks and checked for recovery of organisms at 1, 3 and 7 days after inoculation.
(§4) Results to show efficacy in a polymer based on an acrylic ester and acrylonitrile polymer dispersion using: • 1000 ppm CuHDO • 1000 ppm in-situ generated CuHDO (by blending within the matrix or medium, 315 ppm of basic copper carbonate containing 57.5% copper content with 3492 ppm of a 30% water soluble solution of potassium salt of N′-hydroxy-N-cyclohexyldiazenium oxide (KHDO))
(§5) Using the following performance rating: • P=Pass (0-100 colonies) • F=Fail (101->1000 colonies)

[4] = test system: Fungal Challenges; test: In can preservation challenge test (IBRG draft method), fungal challenges; settings: 1000 ppm, acrylic ester and acrylonitrile polymer dispersion
Protocol: as §3, §4, §5

[5] = test system: Bacterial Challenges; test: In can preservation challenge test (IBRG draft method), bacterial challenges; settings: 1000 ppm, acrylic ester and acrylonitrile polymer dispersion
Protocol: as §3, §4, §5

[6] = 0.5% by weight, after leaching with running water for 72 hours
[7] = 0.5% by weight, coating as applied
[8] = 0.15% by weight, after leaching with running water for 72 hours
[9] = 0.15% by weight, coating as applied
[10] = 0.2% by weight, after leaching with running water for 72 hours
[11] = 0.2% by weight, coating as applied
[12] = 1.5% by weight, after leaching with running water for 72 hours
[13] = 1.5% by weight, coating as applied

CCNc1nc(NC(C)(C)C)nc(SC)n1 [Terbutryn, reference compound]
ALGAL GROWTH ASSESSMENT 28 days ([1]; 0.5% by weight): 0.0 | ALGAL GROWTH ASSESSMENT 56 days ([1]; 0.5% by weight): 0.0

CCCCNC(=O)OCC#CI [IPBC, reference compound]
FUNGAL GROWTH ASSESSMENT Plaster Substrate 28 days [2, 6]: 1 | FUNGAL GROWTH ASSESSMENT Plaster Substrate 56 days [2, 6]: 1 | FUNGAL GROWTH ASSESSMENT Wood Substrate 28 days [2, 6]: 1 | FUNGAL GROWTH ASSESSMENT Wood Substrate 56 days [2, 6]: 1 | FUNGAL GROWTH ASSESSMENT Plaster Substrate 28 days [2, 7]: 1 | FUNGAL GROWTH ASSESSMENT Plaster Substrate 56 days [2, 7]: 1 | FUNGAL GROWTH ASSESSMENT Wood Substrate 28 days [2, 7]: 1 | FUNGAL GROWTH ASSESSMENT Wood Substrate 56 days [2, 7]: 1

[Cu+2].[O-]/N=[N+](\[O-])C1CCCCC1.[O-]/N=[N+](\[O-])C1CCCCC1 [CuHDO, copper salt of N′-hydroxy-N-cyclohexyl-diazenium oxide]
Overall Efficacy ([3]; pH 5): F^2 (F=Fail (101->1000 colonies)) | Overall Efficacy ([3]; pH 7): P (P=Pass (0-100 colonies)) | Overall Efficacy ([3]; pH 9): P (P=Pass (0-100 colonies)) | Fungal Challenges ([4]; pH 5): F^2 (F=Fail (101->1000 colonies)) | Fungal Challenges ([4]; pH 7): P (P=Pass (0-100 colonies)) | Fungal Challenges ([4]; pH 9): P (P=Pass (0-100 colonies)) | ALGAL GROWTH ASSESSMENT 28 days ([1]; 0.15% by weight): 2/2 | ALGAL GROWTH ASSESSMENT 42 days ([1]; 0.15% by weight): 1/1 | ALGAL GROWTH ASSESSMENT 56 days ([1]; 0.15% by weight): 0/1 | ALGAL GROWTH ASSESSMENT 28 days ([1]; 0.2% by weight): 0.1 | ALGAL GROWTH ASSESSMENT 56 days ([1]; 0.2% by weight): 1.2 | ALGAL GROWTH ASSESSMENT 28 days ([1]; 1.5% by weight): 0/0 | ALGAL GROWTH ASSESSMENT 42 days ([1]; 1.5% by weight): 0/0 | ALGAL GROWTH ASSESSMENT 56 days ([1]; 1.5% by weight): 0/0 | FUNGAL GROWTH ASSESSMENT Plaster Substrate 28 days [2, 8]: 1 | FUNGAL GROWTH ASSESSMENT Plaster Substrate 42 days [2, 8]: 1 | FUNGAL GROWTH ASSESSMENT Plaster Substrate 56 days [2, 8]: 2 (2=growth on 1-10% of test face) | FUNGAL GROWTH ASSESSMENT Wood Substrate 28 days [2, 8]: 1 | FUNGAL GROWTH ASSESSMENT Wood Substrate 42 days [2, 8]: 1 | FUNGAL GROWTH ASSESSMENT Wood Substrate 56 days [2, 8]: 2 (2=growth on 1-10% of test face) | FUNGAL GROWTH ASSESSMENT Plaster Substrate 28 days [2, 9]: 1 | FUNGAL GROWTH ASSESSMENT Plaster Substrate 42 days [2, 9]: 1 | FUNGAL GROWTH ASSESSMENT Plaster Substrate 56 days [2, 9]: 1 | FUNGAL GROWTH ASSESSMENT Wood Substrate 28 days [2, 9]: 1 | FUNGAL GROWTH ASSESSMENT Wood Substrate 42 days [2, 9]: 1 | FUNGAL GROWTH ASSESSMENT Wood Substrate 56 days [2, 9]: 1 | FUNGAL GROWTH ASSESSMENT Plaster Substrate 28 days [2, 10]: 2 (2=growth on 1-10% of test face) | FUNGAL GROWTH ASSESSMENT Plaster Substrate 56 days [2, 10]: 3 (3=growth on 10-30% of test face) | FUNGAL GROWTH ASSESSMENT Wood Substrate 28 days [2, 10]: 2 (2=growth on 1-10% of test face) | FUNGAL GROWTH ASSESSMENT Wood Substrate 56 days [2, 10]: 3 (3=growth on 10-30% of test face) | FUNGAL GROWTH ASSESSMENT Plaster Substrate 28 days [2, 11]: 1 | FUNGAL GROWTH ASSESSMENT Plaster Substrate 56 days [2, 11]: 1 | FUNGAL GROWTH ASSESSMENT Wood Substrate 28 days [2, 11]: 1 | FUNGAL GROWTH ASSESSMENT Wood Substrate 56 days [2, 11]: 1 | FUNGAL GROWTH ASSESSMENT Plaster Substrate 28 days [2, 12]: 1 | FUNGAL GROWTH ASSESSMENT Plaster Substrate 42 days [2, 12]: 1 | FUNGAL GROWTH ASSESSMENT Plaster Substrate 56 days [2, 12]: 1 | FUNGAL GROWTH ASSESSMENT Wood Substrate 28 days [2, 12]: 1 | FUNGAL GROWTH ASSESSMENT Wood Substrate 42 days [2, 12]: 1 | FUNGAL GROWTH ASSESSMENT Wood Substrate 56 days [2, 12]: 1 | FUNGAL GROWTH ASSESSMENT Plaster Substrate 28 days [2, 13]: 1 | FUNGAL GROWTH ASSESSMENT Plaster Substrate 42 days [2, 13]: 1 | FUNGAL GROWTH ASSESSMENT Plaster Substrate 56 days [2, 13]: 1 | FUNGAL GROWTH ASSESSMENT Wood Substrate 28 days [2, 13]: 1 | FUNGAL GROWTH ASSESSMENT Wood Substrate 42 days [2, 13]: 1 | FUNGAL GROWTH ASSESSMENT Wood Substrate 56 days [2, 13]: 1 | Bacterial Challenges ([5]; pH 5): P (P=Pass (0-100 colonies)) | Bacterial Challenges ([5]; pH 7): P (P=Pass (0-100 colonies)) | Bacterial Challenges ([5]; pH 9): P (P=Pass (0-100 colonies))
